In brackets after ≈: the same amount, converted by molar mass. Where two headings read alike, the source gives them in different places. A value given as a limit tells only on which side of the number the result lay.

The values below come from article PMC11731290, “Highly Active Oligoethylene Glycol Pleuromutilins via Systematic Linker Synthesis/One-Pot Attachment and a Microscale Solubility Method” (The Journal of Organic Chemistry, 2024).

One data set relates to E. coli MC1061. Briefly: Broth microdilution MIC, E. coli MC1061. The class given is cell-based. The following applies: Escherichia coli.
For data set [1], the system named is methicillin-resistant S. aureus (MRSA) ATCC 43300. Briefly: Broth microdilution MIC, MRSA 43300. The format is cell-based, Staphylococcus aureus. To be noted: for MIC: Staphylococcus aureus, read-out: Minimum inhibitory concentration, MRSA 43300; for improvement in activity relative to pleuromutilin (1): Gram-positive bacteria (S. aureus strains), MIC ratio to 1. (Broth dilution looks for growth in wells or tubes with falling amounts of substance.)

Data set [2] in a line: Microscale solubility by optical density (plate reader). The following applies: 37 °C, aqueous buffer, kinetic from dmso stock.
Data set [3] deals with vancomycin-resistant Enterococcus (VRE). The experiment in a line: Broth microdilution MIC, VRE. The class given is cell-based. The following applies: for MIC: Enterococcus, VRE, 24 h, read-out: Minimum inhibitory concentration, VRE.
For a further data set, the system named is E. coli ΔTolC. The experiment in a line: Broth microdilution MIC, E. coli ΔTolC. The format is cell-based. The following applies: Escherichia coli, read-out: Minimum inhibitory concentration, E. coli ΔTolC.
The test system of another data set is S. aureus 6538P. Briefly: Broth microdilution MIC, S. aureus 6538P. The class given is cell-based. The following applies: Staphylococcus aureus, read-out: Minimum inhibitory concentration, S. aureus 6538P.
Details of data set [4]: method as in earlier work. The following applies: cited from earlier work.
Where [5] appears, read: MC1061, broth microdilution, 37 °C, 16–18 h, MIC = lowest concentration inhibiting >90% of growth, read-out: Minimum inhibitory concentration, E. coli MC1061.
Where [6] appears, read: broth microdilution, 37 °C, 16–18 h, MIC = lowest concentration inhibiting >90% of growth.
[7] abbreviates: broth microdilution, 37 °C, MIC = lowest concentration inhibiting >90% of growth.

As usually defined, the solubility is how much of the substance goes into solution per volume. Low readings indicate a poorly soluble substance, high ones a readily soluble substance. With `C=C[C@]1(C)C[C@@H](OC(=O)CSCCOCCOCCOCCOCCN=[N+]=[N-])[C@]2(C)[C@H](C)CC[C@]3(CCC(=O)[C@H]32)[C@@H](C)[C@@H]1O` [compound 32], the MIC was found to be 25 µM (≈ 16 µg/mL) in the data set on E. coli MC1061 (setting [5]); 0.781 µM (≈ 0.5 µg/mL) in data set [1] (setting [6]); 3.12 µM (≈ 2 µg/mL) in data set [3] (setting [7]); 0.391 µM (≈ 0.25 µg/mL) with E. coli ΔTolC; 0.781 µM (≈ 0.5 µg/mL) in the data set on S. aureus 6538P (setting [6]). The compound further had a solubility at 1 day in data set [2] of 100 to 200 µM (≈ 64 to 128 µg/mL).

Consider `C=C[C@]1(C)C[C@@H](OC(=O)CSCCOCCOCCOCCOCCOCCOCCOCCO)[C@]2(C)[C@H](C)CC[C@]3(CCC(=O)[C@H]32)[C@@H](C)[C@@H]1O` [compound 48], for which the MIC in the data set with E. coli MC1061 (setting [5]) is 25 µM (≈ 18.7 µg/mL); in data set [1] (setting [6]), 3.12 µM (≈ 2.33 µg/mL); in data set [3] (setting [7]), 3.12 µM (≈ 2.33 µg/mL); in the data set on E. coli ΔTolC it was 1.56 µM (≈ 1.17 µg/mL); with S. aureus 6538P, 1.56 µM (≈ 1.17 µg/mL). This compound also returned a solubility at 1 day in data set [2] of over 200 µM.

With `C=C[C@]1(C)C[C@@H](OC(=O)CSCCOCCO)[C@]2(C)[C@H](C)CC[C@]3(CCC(=O)[C@H]32)[C@@H](C)[C@@H]1O` [compound 43], the MIC in the data set with E. coli MC1061 (setting [5]) was found to be 6.25 µM (≈ 3.02 µg/mL); in data set [1] (setting [6]), 0.781 µM (≈ 0.377 µg/mL); in data set [3] (setting [7]) it was 3.12 µM (≈ 1.51 µg/mL); with E. coli ΔTolC, 0.391 µM (≈ 0.189 µg/mL); with S. aureus 6538P (setting [6]), 0.781 µM (≈ 0.377 µg/mL). The compound further displayed a solubility at 1 day in data set [2] of over 200 µM.

As to `C=C[C@]1(C)C[C@@H](OC(=O)CSCCOCCOCCN=[N+]=[N-])[C@]2(C)[C@H](C)CC[C@]3(CCC(=O)[C@H]32)[C@@H](C)[C@@H]1O` [compound 30], the MIC in the data set with E. coli MC1061 (setting [5]) was found to be 25 µM (≈ 13.8 µg/mL); in data set [1] (setting [6]), 0.781 µM (≈ 0.431 µg/mL); in data set [3] (setting [7]), 3.12 µM (≈ 1.72 µg/mL); with E. coli ΔTolC, 0.391 µM (≈ 0.216 µg/mL); with S. aureus 6538P (setting [6]) it was 0.781 µM (≈ 0.431 µg/mL). Moreover, the solubility at 1 day in data set [2] was 50 to 100 µM (≈ 27.6 to 55.2 µg/mL).

For the compound `C=C[C@]1(C)C[C@@H](OC(=O)CSCCOCCOCCOCCN=[N+]=[N-])[C@]2(C)[C@H](C)CC[C@]3(CCC(=O)[C@H]32)[C@@H](C)[C@@H]1O` [compound 31], the MIC with E. coli MC1061 (setting [5]) was 50 µM (≈ 29.8 µg/mL); in data set [1] (setting [6]) it was 0.781 µM (≈ 0.465 µg/mL); in data set [3] (setting [7]) it was 3.12 µM (≈ 1.86 µg/mL); with E. coli ΔTolC, 0.391 µM (≈ 0.233 µg/mL); in the data set on S. aureus 6538P (setting [6]), 0.781 µM (≈ 0.465 µg/mL). Moreover, the solubility at 1 day in data set [2] is 100 to 200 µM (≈ 59.6 to 119 µg/mL).

With `C=C[C@]1(C)C[C@@H](OC(=O)CSCCOCCOCCOCCOCCOCCO)[C@]2(C)[C@H](C)CC[C@]3(CCC(=O)[C@H]32)[C@@H](C)[C@@H]1O` [compound 47], the MIC was found to be 25 µM (≈ 16.5 µg/mL) with E. coli MC1061 (setting [5]); 1.56 µM (≈ 1.03 µg/mL) in data set [1] (setting [6]); 3.12 µM (≈ 2.06 µg/mL) in data set [3] (setting [7]); 0.781 µM (≈ 0.515 µg/mL) with E. coli ΔTolC; 0.781 µM (≈ 0.515 µg/mL) in the data set with S. aureus 6538P. Moreover, the solubility at 1 day in data set [2] is over 200 µM.

`C=C[C@]1(C)C[C@@H](OC(=O)CSCCN=[N+]=[N-])[C@]2(C)[C@H](C)CC[C@]3(CCC(=O)[C@H]32)[C@@H](C)[C@@H]1O` [compound 28]: the MIC in the data set on E. coli MC1061 (setting [5]) worked out at 12.5 µM (≈ 5.8 µg/mL); in data set [1] (setting [6]), 0.391 µM (≈ 0.181 µg/mL); in data set [3] (setting [7]), 1.56 µM (≈ 0.723 µg/mL); with E. coli ΔTolC, 0.195 µM (≈ 0.0904 µg/mL); with S. aureus 6538P (setting [6]) it was 0.391 µM (≈ 0.181 µg/mL). In addition, the “improvement in activity relative to pleuromutilin (1)” value in data set [1] worked out at 8 fold. Moreover, the solubility at 1 day in data set [2] was 25 to 50 µM (≈ 11.6 to 23.2 µg/mL). Also, the “potency compared to 1, VRE” value in data set [3] (MIC ratio to 1) is reported as 8 fold.

Turning to `C=C[C@]1(C)C[C@@H](OC(=O)CSCCOCCOCCOCCOCCO)[C@]2(C)[C@H](C)CC[C@]3(CCC(=O)[C@H]32)[C@@H](C)[C@@H]1O` [compound 46], the MIC with E. coli MC1061 (setting [5]) came to 12.5 µM (≈ 7.69 µg/mL); in data set [1] (setting [6]), 1.56 µM (≈ 0.959 µg/mL); in data set [3] (setting [7]), 3.12 µM (≈ 1.92 µg/mL); in the data set with E. coli ΔTolC, 0.781 µM (≈ 0.48 µg/mL); in the data set on S. aureus 6538P, 0.781 µM (≈ 0.48 µg/mL). This compound gave a solubility at 1 day in data set [2] of over 200 µM.

With `C=C[C@]1(C)C[C@@H](OC(=O)CSCCOCCOCCOCCO)[C@]2(C)[C@H](C)CC[C@]3(CCC(=O)[C@H]32)[C@@H](C)[C@@H]1O` [compound 45], the MIC is 12.5 µM (≈ 7.13 µg/mL) in the data set on E. coli MC1061 (setting [5]); 1.56 µM (≈ 0.89 µg/mL) in data set [1] (setting [6]); 3.12 µM (≈ 1.78 µg/mL) in data set [3] (setting [7]); 0.781 µM (≈ 0.446 µg/mL) in the data set with E. coli ΔTolC; 0.781 µM (≈ 0.446 µg/mL) in the data set with S. aureus 6538P. In data set [2], this compound displayed a solubility at 1 day of over 200 µM.

Take `C=C[C@]1(C)C[C@@H](OC(=O)CSCCOCCOCCO)[C@]2(C)[C@H](C)CC[C@]3(CCC(=O)[C@H]32)[C@@H](C)[C@@H]1O` [compound 44]: the MIC in the data set with E. coli MC1061 (setting [5]) came to 12.5 µM (≈ 6.58 µg/mL); in data set [1] (setting [6]), 1.56 µM (≈ 0.822 µg/mL); in data set [3] (setting [7]), 3.12 µM (≈ 1.64 µg/mL); in the data set on E. coli ΔTolC, 0.391 µM (≈ 0.206 µg/mL); in the data set with S. aureus 6538P (setting [6]), 0.781 µM (≈ 0.411 µg/mL). This compound gave a solubility at 1 day in data set [2] of over 200 µM.

For the compound `C=C[C@]1(C)C[C@@H](OC(=O)CSCCO)[C@]2(C)[C@H](C)CC[C@]3(CCC(=O)[C@H]32)[C@@H](C)[C@@H]1O` [compound 25], the MIC was determined as 3.12 µM (≈ 1.37 µg/mL) in the data set on E. coli MC1061 (setting [5]); 0.781 µM (≈ 0.343 µg/mL) in data set [1] (setting [6]); 3.12 µM (≈ 1.37 µg/mL) in data set [3] (setting [7]); 0.391 µM (≈ 0.172 µg/mL) in the data set with E. coli ΔTolC; 0.781 µM (≈ 0.343 µg/mL) in the data set with S. aureus 6538P (setting [6]). The compound further came in with a solubility at 1 day in data set [2] of over 200 µM.

For `C=C[C@]1(C)C[C@@H](OC(=O)CO)[C@]2(C)[C@H](C)CC[C@]3(CCC(=O)[C@H]32)[C@@H](C)[C@@H]1O` [compound 1, Pleuromutilin], the MIC with E. coli MC1061 (MC1061, read-out: Minimum inhibitory concentration, E. coli MC1061) came out at 3.12 µM (≈ 1.18 µg/mL); in data set [1], 3.12 µM (≈ 1.18 µg/mL); in data set [3], 12.5 µM (≈ 4.73 µg/mL); in the data set on E. coli ΔTolC, 3.12 µM (≈ 1.18 µg/mL); in the data set with S. aureus 6538P it was 3.12 µM (≈ 1.18 µg/mL). In data set [2], this compound showed a solubility at 1 day of 50 to 100 µM (≈ 18.9 to 37.9 µg/mL). In addition, the water solubility in data set [4] is 20 µg/mL (≈ 52.8 µM).

As for `C=C[C@]1(C)C[C@@H](OC(=O)CSCCOCCN=[N+]=[N-])[C@]2(C)[C@H](C)CC[C@]3(CCC(=O)[C@H]32)[C@@H](C)[C@@H]1O` [compound 29], the MIC with E. coli MC1061 (setting [5]) stood at 25 µM (≈ 12.7 µg/mL); in data set [1] it was 0.391 µM (≈ 0.199 µg/mL); in data set [3] (setting [7]), 3.12 µM (≈ 1.58 µg/mL); with E. coli ΔTolC, 0.391 µM (≈ 0.199 µg/mL); in the data set on S. aureus 6538P (setting [6]) it was 0.781 µM (≈ 0.397 µg/mL). The “improvement in activity relative to pleuromutilin (1)” value in data set [1] amounted to 8 fold. Moreover, the solubility at 1 day in data set [2] fell in the range of 25 to 50 µM (≈ 12.7 to 25.4 µg/mL).
